Assays:
Assay in all cases: relative viability (nuclei count vs DMSO), 5 days (fraction); higher = more cells survive
A-427 = system: A-427
Outline: (§1)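 Five library-drug doses in √10 steps were combined with a fixed anchor-drug dose, or a single drug was given alone, by pin tool to lung cancer cell lines in 1536-well plates the day after seeding. Nuclei were stained and counted after 5 days. Relative viability is the nuclei count in treated wells over that in vehicle wells, taken as the median of duplicate plates.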

COR-L 105 = system: COR-L 105
Outline: as §1

EPLC-272H = system: EPLC-272H
Outline: as §1

HCC-366 = system: HCC-366
Outline: as §1

HCC-78 = system: HCC-78
Outline: as §1

HOP-62 = system: HOP-62
Outline: as §1

LC-2-ad = system: LC-2-ad
Outline: as §1

LU99A = system: LU99A
Outline: as §1

LXF-289 = system: LXF-289
Outline: as §1

NCI-H1666 = system: NCI-H1666
Outline: as §1

NCI-H1792 = system: NCI-H1792
Outline: as §1

NCI-H1793 = system: NCI-H1793
Outline: as §1

NCI-H1915 = system: NCI-H1915
Outline: as §1

NCI-H1944 = system: NCI-H1944
Outline: as §1

NCI-H2009 = system: NCI-H2009
Outline: as §1

NCI-H2085 = system: NCI-H2085
Outline: as §1

NCI-H2170 = system: NCI-H2170
Outline: as §1

NCI-H358 = system: NCI-H358
Outline: as §1

NCI-H460 = system: NCI-H460
Outline: as §1

SK-LU-1 = system: SK-LU-1
Outline: as §1

SW 900 = system: SW 900
Outline: as §1

UMC-11 = system: UMC-11
Outline: as §1

## O=c1cc(N2CCOCC2)oc2c(-c3cccc4c3sc3ccccc34)cccc12 + CC(=O)Nc1cccc(-n2c(=O)n(C3CC3)c(=O)c3c(Nc4ccc(I)cc4F)n(C)c(=O)c(C)c32)c1 [Trametinib] (partner 0.02 µM)
A-427; first compound 0.01 µM
  relative viability: 0.869
A-427; first compound 0.03162 µM
  relative viability: 0.775
A-427; first compound 0.1 µM
  relative viability: 0.747
A-427; first compound 0.3162 µM
  relative viability: 0.812
A-427; first compound 1 µM
  relative viability: 0.695
COR-L 105; first compound 0.01 µM
  relative viability: 0.414
COR-L 105; first compound 0.03162 µM
  relative viability: 0.427
COR-L 105; first compound 0.1 µM
  relative viability: 0.446
COR-L 105; first compound 0.3162 µM
  relative viability: 0.451
COR-L 105; first compound 1 µM
  relative viability: 0.429
EPLC-272H; first compound 0.01 µM
  relative viability: 0.301
EPLC-272H; first compound 0.03162 µM
  relative viability: 0.285
EPLC-272H; first compound 0.1 µM
  relative viability: 0.333
EPLC-272H; first compound 0.3162 µM
  relative viability: 0.284
EPLC-272H; first compound 1 µM
  relative viability: 0.279
HCC-366; first compound 0.01 µM
  relative viability: 0.411
HCC-366; first compound 0.03162 µM
  relative viability: 0.355
HCC-366; first compound 0.1 µM
  relative viability: 0.36
HCC-366; first compound 0.3162 µM
  relative viability: 0.333
HCC-366; first compound 1 µM
  relative viability: 0.322
HCC-78; first compound 0.01 µM
  relative viability: 0.801
HCC-78; first compound 0.03162 µM
  relative viability: 0.699
HCC-78; first compound 0.1 µM
  relative viability: 0.899
HCC-78; first compound 0.3162 µM
  relative viability: 0.806
HCC-78; first compound 1 µM
  relative viability: 0.651
HOP-62; first compound 0.01 µM
  relative viability: 0.379
HOP-62; first compound 0.03162 µM
  relative viability: 0.384
HOP-62; first compound 0.1 µM
  relative viability: 0.358
HOP-62; first compound 0.3162 µM
  relative viability: 0.385
HOP-62; first compound 1 µM
  relative viability: 0.373
LC-2-ad; first compound 0.01 µM
  relative viability: 0.982
LC-2-ad; first compound 0.03162 µM
  relative viability: 0.877
LC-2-ad; first compound 0.1 µM
  relative viability: 0.965
LC-2-ad; first compound 0.3162 µM
  relative viability: 0.899
LC-2-ad; first compound 1 µM
  relative viability: 0.918
LU99A; first compound 0.01 µM
  relative viability: 0.561
LU99A; first compound 0.03162 µM
  relative viability: 0.576
LU99A; first compound 0.1 µM
  relative viability: 0.562
LU99A; first compound 0.3162 µM
  relative viability: 0.501
LU99A; first compound 1 µM
  relative viability: 0.541
LXF-289; first compound 0.01 µM
  relative viability: 0.672
LXF-289; first compound 0.03162 µM
  relative viability: 0.629
LXF-289; first compound 0.1 µM
  relative viability: 0.662
LXF-289; first compound 0.3162 µM
  relative viability: 0.673
LXF-289; first compound 1 µM
  relative viability: 0.695
NCI-H1666; first compound 0.01 µM
  relative viability: 0.882
NCI-H1666; first compound 0.03162 µM
  relative viability: 0.829
NCI-H1666; first compound 0.1 µM
  relative viability: 0.84
NCI-H1666; first compound 0.3162 µM
  relative viability: 0.814
NCI-H1666; first compound 1 µM
  relative viability: 0.849
NCI-H1792; first compound 0.01 µM
  relative viability: 0.322
NCI-H1792; first compound 0.03162 µM
  relative viability: 0.445
NCI-H1792; first compound 0.3162 µM
  relative viability: 0.383
NCI-H1792; first compound 1 µM
  relative viability: 0.458
NCI-H1793; first compound 0.01 µM
  relative viability: 0.372
NCI-H1793; first compound 0.03162 µM
  relative viability: 0.411
NCI-H1793; first compound 0.1 µM
  relative viability: 0.504
NCI-H1793; first compound 0.3162 µM
  relative viability: 0.406
NCI-H1793; first compound 1 µM
  relative viability: 0.38
NCI-H1915; first compound 0.01 µM
  relative viability: 0.32
NCI-H1915; first compound 0.03162 µM
  relative viability: 0.32
NCI-H1915; first compound 0.1 µM
  relative viability: 0.299
NCI-H1915; first compound 0.3162 µM
  relative viability: 0.3
NCI-H1915; first compound 1 µM
  relative viability: 0.3
NCI-H1944; first compound 0.01 µM
  relative viability: 0.448
NCI-H1944; first compound 0.03162 µM
  relative viability: 0.403
NCI-H1944; first compound 0.1 µM
  relative viability: 0.396
NCI-H1944; first compound 0.3162 µM
  relative viability: 0.411
NCI-H1944; first compound 1 µM
  relative viability: 0.363
NCI-H2009; first compound 0.01 µM
  relative viability: 0.315
NCI-H2009; first compound 0.03162 µM
  relative viability: 0.294
NCI-H2009; first compound 0.1 µM
  relative viability: 0.255
NCI-H2009; first compound 0.3162 µM
  relative viability: 0.279
NCI-H2009; first compound 1 µM
  relative viability: 0.212
NCI-H2085; first compound 0.01 µM
  relative viability: 0.515
NCI-H2085; first compound 0.03162 µM
  relative viability: 0.541
NCI-H2085; first compound 0.1 µM
  relative viability: 0.515
NCI-H2085; first compound 0.3162 µM
  relative viability: 0.577
NCI-H2085; first compound 1 µM
  relative viability: 0.454
NCI-H2170; first compound 0.01 µM
  relative viability: 0.895
NCI-H2170; first compound 0.03162 µM
  relative viability: 0.897
NCI-H2170; first compound 0.1 µM
  relative viability: 0.982
NCI-H2170; first compound 0.3162 µM
  relative viability: 0.801
NCI-H2170; first compound 1 µM
  relative viability: 0.889
NCI-H358; first compound 0.01 µM
  relative viability: 0.133
NCI-H358; first compound 0.03162 µM
  relative viability: 0.14
NCI-H358; first compound 0.1 µM
  relative viability: 0.115
NCI-H358; first compound 0.3162 µM
  relative viability: 0.128
NCI-H358; first compound 1 µM
  relative viability: 0.165
NCI-H460; first compound 0.01 µM
  relative viability: 0.104
NCI-H460; first compound 0.03162 µM
  relative viability: 0.127
NCI-H460; first compound 0.1 µM
  relative viability: 0.185
NCI-H460; first compound 0.3162 µM
  relative viability: 0.197
NCI-H460; first compound 1 µM
  relative viability: 0.12
SK-LU-1; first compound 0.01 µM
  relative viability: 0.521
SK-LU-1; first compound 0.03162 µM
  relative viability: 0.453
SK-LU-1; first compound 0.1 µM
  relative viability: 0.505
SK-LU-1; first compound 0.3162 µM
  relative viability: 0.443
SK-LU-1; first compound 1 µM
  relative viability: 0.5
SW 900; first compound 0.03162 µM
  relative viability: 0.922
SW 900; first compound 0.1 µM
  relative viability: 0.949
SW 900; first compound 0.3162 µM
  relative viability: 0.858
SW 900; first compound 1 µM
  relative viability: 0.82
UMC-11; first compound 0.01 µM
  relative viability: 0.734
UMC-11; first compound 0.03162 µM
  relative viability: 0.741
UMC-11; first compound 0.1 µM
  relative viability: 0.773
UMC-11; first compound 0.3162 µM
  relative viability: 0.756
UMC-11; first compound 1 µM
  relative viability: 0.832

— the supplement of paper PMC10307832
